Test results from patent US20050277612A1, “Methods, compositions and compound assays for inhibiting amyloid-beta protein production” (priority 2004, published 2005).

Tests used:
SPHK2 RNA = SPHK2 RNA levels via real time PCR in KD virus infected cells; type: cell-based, Homo Sapiens; conditions: infected SH-SY5Y cells, normalized to household keeping genes (GAPDH)
Excerpt: Upon identification of protein kinase involved of APP processing, it is essential to evaluate whether the kinase is expressed in the tissue and cells of interest. This can be achieved by measuring RNA and/or protein levels. In recent years, RNA levels are being quantified through real time PCR technologies, whereby the RNA is first transcribed to cDNA and then the amplification of the cDNA of interest is monitored during a PCR reaction. The amplification plot and the resulting Ct value are indicators for the amount of RNA present in the sample. To assess whether SPHK cDNA is expressed in the human brain, real time PCR with GAPDH specific primers and specific primers for polynucleotides coding for the SPHK polypeptide (Table 3) is performed on human total brain, human cerebral cortex, and human hippocampal total RNA (BD Biosciences). GAPDH RNA is detected with a Taqman probe, while for the polynucleotides of the invention SybrGreen is used. 40 ng of RNA is transcribed to DNA using the MultiScribe Reverse Transcriptase (50 U/μl) enzyme (Applied BioSystems). […]
(§1) Adenoviral knock down constructs are used to transduce mouse, rat or human primary neuronal cells and/or cell lines (e.g. HEK293, SH-SY5Y, IMR-32, SK-N—SH, SK-N-MC, H4, CHO, COS, HeLa) stably over-expressing APPwt or not. […] In addition, RNA is isolated from these infected cells and SPHK2 RNA levels are determined via real time PCR. […]

[1] = test system: amyloid beta 1-42 levels in the conditioned medium of SH-SY5Y cells; experiment: Amyloid beta 1-42 ELISA after adenoviral knock down of SPHK2; type: cell-based; conditions: SH-SY5Y cells co-infected with adenoviruses expressing APPwt and the KD sequence, compared to GL2 KD virus infected cells
Experimental: Cells seeded in collagen-coated plates at a cell density of 15000 cells/well (384 well plate) in DMEM (10% FBS), are infected 24 h later with 1 μl or 0.2 μl of adenovirus (corresponding to an average multiplicity of infection (MOI) of 120 and 24 respectively). The following day, the virus is washed away and DMEM (25 mM Hepes; […]) is added to the cells. Amyloid-beta peptides are allowed to accumulate during 24 h. The ELISA plate is prepared by coating with a capture antibody (JRF/cAbeta42/26) (obtained from M Mercken, Johnson and Johnson Pharmaceutical Research and Development, B-2340 Beerse, Belgium) overnight in buffer 42 (Table 2) at a concentration of 2.5 μg/ml. The excess capture antibody is washed away the next morning with PBS and the ELISA plate is then blocked overnight with casein buffer (see Table 2) at 4° C. […] Following the removal of excess detection antibody by a wash with PBS-Tween20 and PBS, HRP activity is detected via addition of luminol substrate (Roche), which is converted into a chemiluminescent signal by the HRP enzyme. […]
as §1

ACTTCTGCATCTACACCTACC [SEQ ID NO: 6]
SPHK2 RNA levels (SPHK2 RNA): reduced
amyloid beta 1-42 levels in the conditioned medium [1]: reduction
